Consider 13 compounds from patent US4719200A, “Amino acid derivatives and antihypertensive drugs containing the same” (Ajinomoto Co., Inc., priority 1984, dated 1988).

This assay deals with spontaneously hypertensive rates (SHR rats). The assay is described as follows: Measurement of change in blood pressure (systolic, indirect, conscious rats) after one oral dose. In kind it is in vivo, rat. The settings on record: for Systolic Blood Pressure, Lowest Value: after administration; for Δ Blood Pressure (systolic): lowest value minus value before administration. Here is the method:
The antihypertensive activities of the amino acid derivatives as prepared above were determined.
As subject animals, there were used 5 spontaneously hypertensive rates (SHR rats) which had been sufficiently trained and confirmed to be hypertensive (mode, the body weight of 400 g) per a sample.
As an instrument for measuring the blood pressure there was used Programmed Electro-Sphygmomanometer PE-300 (Narco Co., U.S.A.), and the blood pressure was indirectly measured on conscious rats.
An aqueous solution of a sample (0.05 m mole/kg) was once force-fed into the stomach by means of a […] probe. As a control, the water as deionized was fed to the same animals as above.

Setting [1] is: second table (Examples 25-43), before administration.
Where [2] appears, read: SHR rats, 5 per sample, before single force-feeding into the stomach of 0.05 m mole/kg aqueous solution.
Setting [3] is: SHR rats, single force-feeding into the stomach, 0.05 m mole/kg.

Consider `CCOC(=O)N[C@@H](CCSC)C(=O)N1CCC[C@H]1C(=O)N1CCC[C@H]1C(=O)[O-].[Na+]` [Example 36, N--Ethoxycarbonyl-L-methionyl-L-prolyl-L proline sodium salt], for which, for the setting “second table (Examples 25-43)”, the “Hrs. After Admin. (of lowest systolic blood pressure value)” value was found to be 8 h; the “Systolic Blood Pressure, Lowest Value” came to 206; the “Δ Blood Pressure (systolic)” value was -17. Moreover, the “Systolic Blood Pressure, Value Before Administration” value under setting [1] amounted to 223.

As for `CC[C@H](C)[C@H](NS(=O)(=O)CC)C(=O)N1CCC[C@H]1C(=O)N1CCC[C@H]1C(=O)O.[Na]` [Example 37, N--ethanesulphonyl-L-isoleucyl-L-prolyl-proline sodium salt], under “second table (Examples 25-43)”, the “Hrs. After Admin. (of lowest systolic blood pressure value)” value worked out at 8 h; the “Systolic Blood Pressure, Lowest Value” was determined as 194; the “Δ Blood Pressure (systolic)” value is -22. The “Systolic Blood Pressure, Value Before Administration” value under setting [1] is on record as 218.

For the compound `CCS(=O)(=O)N[C@@H](Cc1ccccc1)C(=O)N1CCC[C@H]1C(=O)N1CCC[C@H]1C(=O)O` [Example 38, N--ethanesulfonyl-L-phenylalanyl-L-prolyl-L-proline], where the note is “second table (Examples 25-43)”, the “Hrs. After Admin. (of lowest systolic blood pressure value)” value came to 8 h; the “Systolic Blood Pressure, Lowest Value” was 201; the “Δ Blood Pressure (systolic)” value is listed as -34. Also, under setting [1], the “Systolic Blood Pressure, Value Before Administration” value came out at 235.

As for `CCS(=O)(=O)NCC(=O)N1CCC[C@H]1C(=O)N1CCC[C@H]1C(=O)O` [Example 39, N--ethanesulfonyl-glycyl-L-prolyl-L-proline], where the note is “second table (Examples 25-43)”, the “Hrs. After Admin. (of lowest systolic blood pressure value)” value was determined as 8 h; the “Systolic Blood Pressure, Lowest Value” was 215; the “Δ Blood Pressure (systolic)” value is -18. Under setting [1], the “Systolic Blood Pressure, Value Before Administration” value worked out at 232.

For `CCS(=O)(=O)N[C@@H](CCC(=O)O)C(=O)N1CCC[C@H]1C(=O)N1CCC[C@H]1C(=O)O` [Example 40, N--ethane sulfonyl-L-glutamyl-L-prolyl-L proline], under “second table (Examples 25-43)”, the “Hrs. After Admin. (of lowest systolic blood pressure value)” value was found to be 8 h; the “Systolic Blood Pressure, Lowest Value” came out at 202; the “Δ Blood Pressure (systolic)” value is given as -18. For the same compound, the “Systolic Blood Pressure, Value Before Administration” value under setting [1] amounted to 220.

With `CCS(=O)(=O)N[C@@H](CCCNC(=N)N)C(=O)N1CCC[C@H]1C(=O)N1CCC[C@H]1C(=O)O` [Example 41, N--ethane sulfonyl-L-arginyl-L-prolyl-L-proline], where the note is “second table (Examples 25-43)”, the “Hrs. After Admin. (of lowest systolic blood pressure value)” value was 7 h; the “Systolic Blood Pressure, Lowest Value” came to 185; the “Δ Blood Pressure (systolic)” value was -19. In addition, the “Systolic Blood Pressure, Value Before Administration” value under setting [1] was 204.

As for `CCS(=O)(=O)N[C@@H](CO)C(=O)N1CCC[C@H]1C(=O)N1CCC[C@H]1C(=O)[O-].[Na+]` [Example 42, N--ethane sulfonyl-L-seryl-L-prolyl-L-proline sodium salt], where the note is “second table (Examples 25-43)”, the “Hrs. After Admin. (of lowest systolic blood pressure value)” value came out at 24 h; the “Systolic Blood Pressure, Lowest Value” came to 200; the “Δ Blood Pressure (systolic)” value was -20. Moreover, under setting [1], the “Systolic Blood Pressure, Value Before Administration” value amounted to 220.

With `CCS(=O)(=O)N[C@@H](CCSC)C(=O)N1CCC[C@H]1C(=O)N1CCC[C@H]1C(=O)O` [Example 43, N--ethane sulfonyl-L-methionyl-L-prolyl-L-proline], under “second table (Examples 25-43)”, the “Hrs. After Admin. (of lowest systolic blood pressure value)” value worked out at 8 h; the “Systolic Blood Pressure, Lowest Value” was determined as 198; the “Δ Blood Pressure (systolic)” value is recorded as -31. Moreover, the “Systolic Blood Pressure, Value Before Administration” value under setting [1] was determined as 229.

As for “N-(3-phenylpropionyl)-L-alanyl-L-prolyl-L-proline L-arginine salt [Example 2]”, the “Systolic Blood Pressure, Value Before Administration” value under setting [2] is on record as 190 mm Hg. Under setting [3], the “Hours after administration (of lowest systolic blood pressure value)” value (“Hours after administration” for short) amounted to 24 h; the “Systolic Blood Pressure, Lowest value after administration” value turned out to be 154 mm Hg; the “Δ Blood Pressure (systolic)” value is given as -36 mm Hg.

In the case of “N-(benzylthio) thiocarbonyl-L-alanyl-L-prolyl-L-proline L-arginine salt [Example 9]”, under setting [2], the “Systolic Blood Pressure, Value Before Administration” value turned out to be 216 mm Hg. Moreover, under setting [3], the “Hours after administration” value amounted to 24 h; the “Systolic Blood Pressure, Lowest value after administration” value was 191 mm Hg; the “Δ Blood Pressure (systolic)” value is reported as -25 mm Hg.

Consider “N-benzylsulfonyl-L-alanyl-L-prolyl-L-proline L-arginine salt [Example 11]”, for which, under setting [2], the “Systolic Blood Pressure, Value Before Administration” value is 202 mm Hg. In addition, under setting [3], the “Hours after administration” value was 8 h; the “Systolic Blood Pressure, Lowest value after administration” value came to 174 mm Hg; the “Δ Blood Pressure (systolic)” value is given as -28 mm Hg.

Turning to “N-phenylcarbamoyl-L-alanyl-L-prolyl-L-proline L-arginine salt [Example 17]”, the “Systolic Blood Pressure, Value Before Administration” value under setting [2] is 218 mm Hg. For the same compound, under setting [3], the “Hours after administration” value was found to be 24 h; the “Systolic Blood Pressure, Lowest value after administration” value worked out at 203 mm Hg; the “Δ Blood Pressure (systolic)” value was -15 mm Hg.

Regarding “N-phenylthiocarbamoyl-L-alanyl-L-prolyl-L-proline L-arginine salt [Example 18]”, the “Systolic Blood Pressure, Value Before Administration” value under setting [2] is given as 224 mm Hg. Under setting [3], the “Hours after administration” value is 24 h; the “Systolic Blood Pressure, Lowest value after administration” value turned out to be 211 mm Hg; the “Δ Blood Pressure (systolic)” value was -13 mm Hg.
